Here are results for one compound from US11246822B2, “Biomedical composition for skin care and/or maintenance and delaying and/or inhibiting skin aging and the use thereof” (INDUSTRIAL TECHNOLOGY RESEARCH INSTITUTE, priority 2019, dated 2022).

Series [1] can be described thus: Antioxidant degradation evaluation assay (iodometric titration of vitamin C). The class given is physicochemical. The note with it: vitamin C 10 μg/ml. As to the method: This assay was performed according to a method modified from the method shown by Roberts et al. (1997). First, a liquid sample containing a specific antioxidant at a concentration to be tested was prepared, and the liquid sample containing the specific antioxidant was added into a 250 mL Erlenmeyer flask by a pipette and deionized water was added the to the Erlenmeyer flask to reach the 100 mL scale mark. At the same time, 1 mL of 0.1 M sodium iodide (NaI) and 1 mL of 0.1 M hydrochloric acid (hydrogen chloride, HCl) and 1 mL of 2% starch aqueous solution (indicator) were added to the Erlenmeyer flask. Next, a burette was rinsed the with 0.025 M potassium iodate (KIO3) at least twice, first, and then filled with 0.025 M potassium iodate in a technique of avoiding bubble formation during the filling, and the initial volume of the solution (Vi) in the burette was record after the filling. Thereafter, the liquid sample containing the specific antioxidant mentioned above was titrated with 0.025 M potassium iodate. […] Depending on the condition, the titration operation mentioned above could be repeated two or three times, as appropriate. Finally, the specific antioxidant content could be calculated from the titration volume of potassium iodate.

A short description of series [2]: ABTS free radical scavenging assay. The following applies: vitamin C 10 μg/ml, normal temperature. As to the method: Antioxidant capacity of a sample to be tested was evaluate by ABTS (English full name: 2,2′-azinobis-3-ethyl benzothiazoline-6-sulphonic acid) free radical scavenging test. Since ABTS and potassium persulphate (K2S2O8) will produce an oxidation reaction and form a stable blue-green water-soluble ABTS⋅^+ radical ion with a maximum absorption peak at 734 nm, ABTS⋅^+ free radical concentration can be detected through A734 nm. When the ABTS⋅^+ radical solution is added with an antioxidant (radical scavenger), the original single radicals are paired, causing the ABTS⋅^+ radical solution to fade and the A734 nm absorption value to decrease, thereby evaluating Free radical scavenging ability of the antioxidant can be evaluated.
The mixed solution was placed in a dark room at room temperature for 16 hours of reaction to form stable ABTS⋅^+ radical ions (blue-green), and then the mixed solution was diluted with deionized water to form a ABTS⋅^+ radical ion working solution with absorbance of 0.75±0.05 at 734 nm by a spectrophotometer.
Next, a sample to be tested and standards (Trolox) with different concentrations were added to the ABTS⋅^+ radical ion working solution, respectively, and a group in which only deionized water was added was used as a control group. Absorbance at 734 nm was detected by a spectrophotometer after 20 minutes of reaction. Abilities to scavenge ABTS⋅+ radicals of the standards (Trolox) with different concentrations were plotted as a scavenging standard curve. The measured absorbance of the sample to be tested and the control group are converted according to the standard curve to know the free radical scavenging ability of the sample to be tested. The formula for calculating the scavenging ability is: (1-ABSsample/ABScontrol)×100.

Series [3] is described as follows: DPPH free radical scavenging assay. The note with it: normal temperature; for DPPH free radical capture rate: vitamin C 10 μg/ml. As to the method:
DPPH is a stable free radical. When it is dissolved in methanol or ethanol, it will appear purple and has a strong absorbance at 515 nm. When the sample to be tested can directly react with DPPH radicals, it will block the […] reaction of DPPH free radicals. At this time, the DPPH solution which originally appeared blue-violet will turn into clear yellow, and the absorbance at 515 nm will decrease, and that means that the sample to be tested has an antioxidant component that captures DPPH free radicals. The lighter the color become, the stronger ability to capture DPPH free radicals the antioxidant component has, which means the better the antioxidant capacity of the sample to be tested has. This assay was performed according to a method modified from the method shown by Parejo et al (2003). Aqueous solution of the sample to be tested and standards (Glutathione) with different concentrations each 30 μl were added to the 96-well plate, respectively, and water was used as a blank control. Thereafter, 120 μl of 100 mM Tris-HCl buffer (pH 7.4) was added to the plate and then 150 μl of 500 μM DPPH (Sigma Sigma) ethanol solution was immediately added and uniformly mixed at room temperature and allowed to stand in the dark for 20 minutes. After that, absorbance at 515 nm was detected by a spectrophotometer. The more DPPH free radicals were scavenged, the more the absorbance value decreased. Ability of each sample to be tested to scavenge DPPH free radicals (also means the strength of the hydrogen supply capacity of the sample to be tested) can be determined by percentage of decrease in absorbance relative to the blank control group.
(Loss of DPPH colour is used to gauge radical scavenging.)

[4] abbreviates: room temperature (about 26° C.), 24 hours.

Turning to `O=C1O[C@H]([C@@H](O)CO)C(O)=C1O` [vitamin C, ascorbic acid], in series [1] (40° C., 4 hours), the “vitamin C concentration decreased” value worked out at 20.4%. The “vitamin C concentration, % of the initial concentration” value in series [1] (40° C., 24 hours) is recorded as “about 24.3%”; in series [1] (40° C., 72 hours) it was 3.3%; in series [1] (setting [4]) it was “about 40%”; in series [1] (room temperature (about 26° C.), 72 hours) it was “about 0.9%”. Further, in series [1] (setting [4]), the “vitamin C concentration reduced / degraded” value turned out to be 62.6%. The “ABTS radical ion scavenging rate” value was found to be 57.08% in series [2] (0 hours), 2.49% in series [2] (72 hours) and 22.45% in series [2] (after 24 hours). Besides, the “decrease of antioxidant capacity (DPPH)” value in series [3] (after 24 hours) is recorded as “about 60%”. Also, the entries for the “DPPH free radical capture rate” value in series [3] (0 hour), in series [3] (72 hours) and in series [3] (after 24 hours) were 86.77%, 2.99% and 34.67%, respectively.
